{
  "source": "patent US10227663B2",
  "about": "“Non-replicative transduction particles and transduction particle-based reporter systems” (priority 2013, dated 2019)",
  "key": {"[1]": {"test_system": "cefoxitin resistant S. aureus (MRSA strains)", "experiment": "MIC determination via plating on TSA plates containing cefoxitin", "format": "cell-based", "settings": "Staphylococcus aureus", "protocol": "(§1) Overnight Culture: For each MRSA strain ([…] and S7) and a MSSA negative control strain (MSSA121), 2 mL of TSB were inoculated with a colony of the strain previously grown on TSA plates. Overnight MRSA cultures included 5 ug/mL cefoxitin. All samples were incubated overnight at 37° C. in a shaking incubator.\n(§2) Day Culture: 20 uL of each of the overnight cultures were transferred into a new culture tube containing 2 mL of Growth Media Reagent. The inoculums were then incubated at 37 C with shaking for approximately 1 hr 45 min, until the OD(600 nm) reached 0.1.\na) Each of the day cultures was streaked onto TSA plates containing cefoxitin at 4, 8, 16, 32, 64, and 128 ug/mL.\nb) Plates were incubated for 18 hours at 37 C to determine growth."}, "[2]": {"test_system": "cefoxitin resistant S. aureus (MRSA strains)", "experiment": "NRTP-based cefoxitin susceptibility assay (luminescence)", "format": "cell-based, Staphylococcus aureus", "protocol": "as §1, §2\na) Wells of a white 96 well assay plate were filled with 100 uL of 2× Transduction Particle Reagent.\nb) For each of the day cultures, five wells were then filled with 100 uL of day culture.\nc) For each of the day cultures, cefoxitin was added to one well each such that the cefoxitin concentration in the well was at 4, 8, 16, 32, 64, and 128 ug/mL. […]\nAt the end of 4 hours, the plate was remove from incubator and immediately measured for luminescence on a SpectraMax L that injected 50 μl of the Substrate Reagent and measured luminescence for a period of 1 minute.\nThe maximum luminescence value after Substrate Reagent addition from each sample was plotted. MSSA sample RLU values were used to determine a Cutoff calculated using the following formula: (Mean MSSA RLU+3*SD MSSA RLU)."}},
  "note": "Like-named read-outs stand apart in the source and are kept apart here.",
  "data": [
    {"molecule": "CO[C@@]1(NC(=O)Cc2cccs2)C(=O)N2C(C(=O)O)=C(COC(N)=O)CS[C@@H]21", "note": "[cefoxitin]", "values": [
      {"measurement": "MIC", "setting": "[1]; MRSA / NRS 25, 18 h", "value": 128, "unit": "µg/mL"},
      {"measurement": "MIC", "setting": "[1]; MRSA S7, TSA plates, 18 hours at 37 C, read-out: MIC", "value": 64, "unit": "µg/mL"},
      {"measurement": "Cefoxitin concentration up to which luminescence was above the MSSA RLU cutoff", "setting": "[2]; MRSA NRS25, 4 hours at 37° C.", "value": "up to 64 ug/mL"},
      {"measurement": "Cefoxitin concentration up to which luminescence was above the MSSA RLU cutoff", "setting": "[2]; MRSA S7, 4 hours at 37° C.", "value": "up to 32 ug/mL"}
    ]}
  ]
}
